According to patent US20230087609A1, “USE OF A SOLUBLE GUANYLATE CYCLASE (sGC) STIMULATOR OR OF A COMBINATION OF A sGC STIMULATOR AND AN sGC ACTIVATOR FOR CONDITIONS WHEREIN THE HEME GROUP OF sGC IS OXIDIZED OR WHEREIN sGC IS DEFICIENT IN HEME” (Universiteit Maastricht, priority 2020, published 2023):

Experiments:
[1] = tested on: isolated rat mesenteric arteries; test: Relaxation of isolated rat mesenteric arteries (myograph)
Text: The animals were killed humanely via CO2 inhalation (95% CO2, 5% O2) followed by cervical dislocation and exsanguination. The required tissues were dissected and placed in ice-cold oxygenated Krebs' solution (composition in mM: NaCl 119, KCl 4.7, MgSO4 1.17, NaHCO3 25, KH2PO4 1.18, CaCl2 2.5, glucose 5.5, EDTA 0.026, pH 7.4). The collected arteries were carefully freed of fat and connective tissue and cut into 2 mm rings.
The segments were then mounted in a small vessel myograph for the measurement of changes in isometric tension. Two 40 μm stainless steel wires were inserted through the lumen of the segment, one attached to an isometric force transducer and the other to a support driven by a micrometer. The vessels were maintained in Krebs' solution at 37° C. in 7 ml myograph chambers and were continuously bubbled with carbogen (95% O2, 5% CO2). Arteries were allowed to equilibrate for a 30 min period under zero force after which their internal diameter was normalised to an equivalent transmural pressure of 100 mmHg. Changes in isometric tension were reordered using a Myograph Interface Model 610 M version 2.2 (AD Instruments, Pty Ltd) and a chart recorder (Yokogawa, Japan), or using a MacLab® (MacLab® data-acquisition system, AD Instruments Pty Ltd.), interfaced with a Macintosh Computer. Following the 30 min equilibration period at optimal resting tension, the vessels were contracted maximally using a potassium depolarising KPSS solution (composition in mM: KCl 123, MgSO4 1.17, KH2PO4 2.37, CaCl2 2.5, glucose, 5.5 and EDTA 0.026). After the maximum contraction reached a plateau, the vessels were washed thoroughly using Krebs' solution and the tension allowed to return to the baseline. The vessels were then pre-contracted to ≈50% maximum contraction using titrated concentration of the thromboxane A2 mimetic U46619 (0.1-100 nM) and a titrated concentration of the al agonist cirazoline (1-100 nM). Subsequently, cumulative (0.5 log unit) concentration response curve to BAY 58-2667 (1 pM-0.1 μM) were constructed in the presence and absence of 100nM BAY 41-2272 (100 nM). All treatments used in our study including the pre-incubation with 10 μM ODQ for 30 min were added before the 50% pre-contraction with cirazoline and U46619 and only one concentration response curve to any vasodilator was constructed in each segment of the blood vessel. At the completion of each concentration response curve, maximal relaxation was achieved by adding nifedipine 10 μM.
Results are expressed as mean±s.e.m, with n representing the number of samples used from separate subjects. Statistical significance was accepted at the P<0.05 level. Relaxation responses to BAY58-2667 were expressed as a percentage reversal of the level of pre-contraction to U46619, with the response to nifedipine 10 μM defined as 100% relaxation. The individual response curves obtained for each vasodilator were fitted using non-linear regressions (Graphpad Prism®, version 5). In-vitro experiments have been performed with n=3 and n=1. Maximal relaxation values (%) at specific concentrations of the compounds were compared. For multiple comparisons, student's t-test or one-way analysis of variance (ANOVA) was followed by Bonferroni's test. • The results of our experiments are represented by the following non-limiting examples.

[2] = tested on: Human Brain Microvascular Endothelial Cells (HBMECs); test: Cell viability (MTT) of HBMEC subjected to hypoxia; format: cell-based; conditions: 1 μM; 6 h hypoxia, 24 h reperfusion; versus non-treated cells (FIG. 9)
Protocol: HBMEC (Cell systems, USA) between passage 3 and 9 were cultured to approximately 95% confluence using specialized cell medium (EGM-2 MV BulletKit, Lonza, The Netherlands) enriched with 5% fetal bovine serum before starting the hypoxia period. For hypoxia studies, HBMECs were seeded at specific density (6×10^4 cells/ml) in 12 wells-plate and incubated during 24 h at 37° C. Then, cell medium was replaced with non-FBS containing medium following by 6 h of hypoxia (94.8% N2, 0.2% O2 and 5% CO2) at 37° C. using hypoxia workstations (Ruskin Invivo2 400 station, The Netherlands). The hypoxia period was followed by 24 h of reperfusion in the presence or absence of 1 μM BAY 41-2272. Control cells were exposed to normoxia (75% N2, 20% O2 and 5% CO2) and enriched medium during the hypoxia period.
After 24 h of re-oxygenation period, cell viability was assessed using the colorimetric MTT assay. MTT solution (5 mg/ml) was added to each well (100 μl/ml) and incubated for 2 h at 37° C. The formazan salt formed was solubilized by adding 350 μl/well DMSO. The optical density was measured spectrophotometrically at 540 nm using a micro plate reader. Absorbance values obtained in control cells were set to 100% viability.

Nc1nc(-c2nn(Cc3ccccc3F)c3ncccc23)ncc1C1CC1 [BAY 41-2272, 5-cyclopropyl-2-[1-(2-fluoro-benzyl)-1H-pyrazolo[3,4-b]pyridin-3-yl]-pyrimidin-4-ylamine]
relaxation, compound alone ([1]; 0.1 μM BAY 41-2272 alone, pre-contraction with U46619): no relaxation | effect on Bay 58-2667 relaxation ([1]; nano-molar range): augmented | effect on DEA/NO (NO donor) relaxation ([1]; nano-molar range): augmented | cell viability [2]: significantly increased cell viability
